Drawing on patent publication US20100113457A1, “NOVEL PYRIDAZINE DERIVATIVES” (SYNGENTA CROP PROTECTION, INC., priority 2006, published 2010), this text covers inhibition and melting point for two compounds.

By inhibition is commonly meant how much of the control response was suppressed. As a reminder, the melting point is the temperature of the solid-liquid transition.

The test system of one series is Septoria Tritici. As to the kind of experiment: Septoria tritici / wheat / preventive (leaf spot). It is filed as in vivo. As to conditions: Zymoseptoria tritici, spray, wheat plants cv. Riband, assessed 16-18 days after inoculation, read-out: inhibition of fungal infestation. How it is done: Septoria Tritici/Wheat/Preventive (Action Against Septoria Leaf Spot on Wheat) 2 weeks old wheat plants cv. Riband are treated with the formulated test compound in a spray chamber. One day after application wheat plants are inoculated by spraying a spore suspension (10^6 conidia/ml) on the test plants. After an incubation period of 1 day at 22° C./21° C. and 95% r. h. plants are kept at 22° C./21° C. and 70% r.h. in a greenhouse. The disease incidence is assessed 16-18 days after inoculation.

A further series has as its system Uncinula Necator. As to the kind of experiment: Uncinula necator / grape / preventive (powdery mildew). The series is classed as in vivo. As to conditions: Erysiphe necator, 168 h, spray, grape seedlings cv. Gutedel, assessed 7 days after inoculation, read-out: inhibition of fungal infestation. How it is done:
Uncinula Necator/Drape/Preventive (Action Against Powdery Mildew on Grape) 5 weeks old grape seedlings cv. Gutedel are treated with the formulated test compound in a spray chamber. One day after application grape plants are inoculated by shaking plants infected with grape powdery mildew above the test plants. After an incubation period of 7 days at 24° C./22° C. and 70% r. h. under a light regime of 14/10 h (light/dark) the disease incidence is assessed.

For the next series, the system named is Alternaria Solani. As to the kind of experiment: Alternaria solani / tomato / preventive. To be noted: 96 h, spray, tomato plants cv. Roter Gnom, assessed 4 days after inoculation, read-out: inhibition of fungal infestation. It is filed as in vivo. The method, then:
Alternaria Solani/Tomato/Preventive (Action Against Alternaria on Tomato) 4 weeks old tomato plants cv. Roter Gnom are treated with the formulated test compound in a spray chamber. Two days after application tomato plants are inoculated by spraying a spore suspension on the test plants. After an incubation period of 4 days at 22° C./18° C. and 95% r. h. in a greenhouse the disease incidence is assessed.

The subject of series [1] is Magnaporthe Grisea (Pyricularia oryzae). The series can be described thus: whole plant or invertebrate. The series is classed as in vivo. To be noted: 144 h, read-out: inhibition of fungal infestation.
A further series has as its system Botrytis Cinerea. The series can be described thus: Botrytis cinerea / tomato / preventive. It is filed as in vivo. As to conditions: 72 h, spray, tomato plants cv. Roter Gnom, assessed 3 days after inoculation, read-out: inhibition of fungal infestation. The method, then:
Botrytis Cinerea/Tomato/Preventive (Action Against Botrytis on Tomato) 4 weeks old tomato plants cv. Roter Gnom are treated with the formulated test compound in a spray chamber. Two days after application tomato plants are inoculated by spraying a spore suspension on the test plants. After an incubation period of 3 days at 20° C. and 95% r. h. in a greenhouse the disease incidence is assessed.

Another series has as its system Puccinia Recondita. The series can be described thus: Puccinia recondita / wheat / preventive (brown rust). The series is classed as in vivo. To be noted: 264 h, spray, wheat plants cv. Arina, assessed 11 days after inoculation, read-out: inhibition of fungal infestation. How it is done:
Puccinia Recondita/Wheat/Preventive (Action Against Brown Rust on Wheat) 1 week old wheat plants cv. Arina are treated with the formulated test compound in a spray chamber. One day after application wheat plants are inoculated by spraying a spore suspension ([…] uredospores/ml) on the test plants. After an incubation period of 1 day at 20° C. and 95% r. h. plants are kept for 10 days 20° C./18° C. (day/night) and 60% r.h. in a greenhouse. The disease incidence is assessed 11 days after inoculation.

The test system of series [2] is Prenophora Teres (Helminthosporium Teres). As to the kind of experiment: Pyrenophora teres / barley / preventive (net blotch). It is filed as in vivo. To be noted: 96 h, spray, barley plants cv. Regina, assessed 4 days after inoculation, read-out: inhibition of fungal infestation. The method, then: Prenophora Teres (Helminthosporium Teres)/Barley/Preventive (Action Against Net Blotch on Barley) 1-week-old barley plants cv. Regina are treated with the formulated test compound in a spray chamber. Two days after application barley plants are inoculated by spraying a spore suspension (2.6×10^4 conidia/ml) on the test plants. After an incubation period of 4 days at 20° C. and 95% r. h. the disease incidence is assessed.

Consider `Cc1nnc(OCC(F)(F)F)c(-c2c(F)cc(F)cc2F)c1-c1ccc(Cl)cc1` [I.c.129, 4-(4-chlorophenyl)-3-methyl-6-(2,2,2-trifluoroethoxy)-5-(2,4,6-trifluorophenyl)-pyridazine], for which the melting point was in the range of 105 to 108 °C. Further, in the series with Septoria Tritici, the inhibition at 200 ppm is not below 80%. Besides, the inhibition at 200 ppm in the series on Uncinula Necator was not below 80%. Besides, the inhibition at 200 ppm in the series with Alternaria Solani is not below 80%.
With `Cc1nnc(F)c(-c2c(F)cc(F)cc2F)c1-c1ccc(Cl)cc1` [I.c.127, 4-(4-chlorophenyl)-6-fluoro-3-methyl-5-(2,4,6-trifluorophenyl)-pyridazine], the inhibition at 200 ppm (in the series on Septoria Tritici; in series [1]; with Botrytis Cinerea; in the series with Puccinia Recondita; with Uncinula Necator; in series [2]) was not below 80% each time. For the same compound, in the series with Alternaria Solani, the inhibition at 200 ppm is not below 80%.
